{
  "source": "patent US9220680B2",
  "about": "“Compositions and methods for localized drug delivery through mammary papillae” (South Dakota State University, priority 2012, dated 2015)",
  "key": {"[1]": {"test": "Biodistribution of 5FU in rats 30 minutes after intraductal and intravenous injection (Experiment 24)", "type": "in vivo, Sprague-Dawley rats", "conditions": "rat; for Drug per gram tissue of mammary papilla: 30 min, n=1", "protocol": "(§1) The hair on the skin of the rats was removed using a hair removing formulation. The treatment was given after 24 hours to make sure the skin is recovered if damaged or altered due to the hair removal treatment.\n(§2) Next day, the rats were placed under controlled Isoflurane anesthesia. Now 500 μl of Blood samples were collected from each animal before beginning the experiment, by retro-orbital technique, as a control. For intraductal injection the mammary papilla to be treated was gently wiped with an alcoholic cotton swab to remove the keratin plug. Now 50 μl of 5FU solution in saline (10 mg/ml) was injected into the duct of the mammary papilla under a stereo-microscope. After this the animal was removed from anesthesia and placed into the cage. In case of intravenous injection, similar to intraductal, 50 μl of 5FU solution in saline (10 mg/ml) was injected into the tail vein and the animal was placed into the cage for 30 minutes. At the end of 30 minutes 500 μl of blood sample was collected. After this the rats were euthanized. Now for intraductal injection the treated area of the rat was cleaned with water. The rat was opened from the abdominal skin. Treated mammary papilla and mammary gland existing underneath the treated mammary papilla was excised and collected. Lateral mammary papilla and mammary gland was collected along with distant mammary papilla and mammary gland, as controls. Followed by this other organs including heart, brain, liver, spleen, kidneys and lungs were collected. In case of intravenous treatment, blood was collected and mammary tissues (mammary papilla, mammary gland and surrounding breast skin) was collected along with other organs including heart, brain, liver, spleen, kidneys and lungs. All the tissues were weighed and then mechanically homogenized to extract the drug. The homogenates were mixed with hydrogen peroxide solution (30% v/v) and then radioactivity into the samples was measured by liquid scintillation counting. Similarly blood samples were centrifuged and the supernatants were analyzed by scintillation counting. Results may be seen in FIG. 50, Tables 30-31."}, "[2]": {"test": "Transmammary permeation across porcine mammary papilla with and without removal of the keratin plug (Experiments 7-10)", "type": "in vitro ADME", "conditions": "porcine mammary papilla", "source_text": "Keratin plug was removed from human and porcine mammary papilla using an alcoholic cotton swab. The swab was gently rubbed on the surface of the mammary papilla. The mammary papilla was observed under the microscope to confirm the removal of the plug from the surface and to confirm that epidermis of the mammary papilla was not damaged during this procedure.\nThe drug solutions were spiked with radioactive substances. […] Receptor medium was PBS with 7.4 pH.\n(§3) Mammary papillae tissues were thawed. Keratin plugs were removed from the mammary papilla tissues using swabs with ethanol. […] The drug solutions were spiked with radioactive substances. […] Receptor medium was PBS with 7.4 pH.\nas §3\nMammary papillae tissues were thawed. Keratin plugs were removed from the mammary papilla tissues using swabs with ethanol. […] The drug solutions were spike with radioactive substances. […] Receptor medium was PBS with 7.4 pH."}, "[3]": {"test": "Biodistribution of 5FU in rats 6 hours after intraductal and intravenous injection (Experiment 23)", "type": "in vivo, Sprague-Dawley rats", "conditions": "rat", "protocol": "as §1\nas §2, with “plug. Now 100 μl of” for “plug. Now 50 μl of”, “to intraductal, 100 μl of” for “to intraductal, 50 μl of”, “cage for 6 hours. At the” for “cage for 30 minutes. At the”, “end of 6 hours 500 μl” for “end of 30 minutes 500 μl”, “in FIG. 49, Table 28 and Table 29.” for “in FIG. 50, Tables 30-31.”"}},
  "data": [
    {"smiles": "O=c1[nH]cc(F)c(=O)[nH]1", "note": "[5FU, 5-fluorouracil]", "values": [
      {"measurement": "Drug per gram tissue, mammary gland", "setting": "[1]; ID (30 min)", "value": 0.018, "unit": "µmol/g"},
      {"measurement": "Drug per gram tissue, surrounding skin", "setting": "[1]; ID (30 min)", "value": 0.03, "unit": "µmol/g"},
      {"measurement": "Drug per gram tissue, mammary gland", "setting": "[1]; IV (30 min)", "value": 0.009, "unit": "µmol/g"},
      {"measurement": "Drug per gram tissue, surrounding skin", "setting": "[1]; IV (30 min)", "value": 0, "unit": "µmol/g"},
      {"measurement": "5FU in vital organs of the body", "setting": "[1]; intraductal and intravenous injection, 30 minutes", "value": "significant amount of 5FU in vital organs of the body including kidneys, liver and brain"},
      {"measurement": "Drug per gram tissue of mammary papilla", "setting": "[1]; intraductal injection 50 μl of 10 mg/ml 5FU in saline", "value": 0.16, "unit": "µmol/g"},
      {"measurement": "Drug per gram tissue of mammary papilla", "setting": "[1]; intravenous injection 50 μl of 10 mg/ml 5FU in saline", "value": 0, "unit": "µmol/g"},
      {"measurement": "Transmammary flux", "setting": "[2]", "value": 10.79, "unit": "μg/sq·cm/h"},
      {"measurement": "Change of permeation upon removal of the keratin plugs (in words)", "setting": "[2]; donor in 50:50 ethanol:water, 48 hours", "value": "increases slightly, though statistically not significant"},
      {"measurement": "5FU in vital organs of the body", "setting": "[3]; intraductal and intravenous injection", "value": "significant amount of 5FU in vital organs of the body including kidneys, liver and brain"},
      {"measurement": "Drug per gram tissue, mammary gland", "setting": "[3]; intraductal injection", "value": 0, "unit": "µmol/g"},
      {"measurement": "Drug per gram tissue, surrounding skin", "setting": "[3]; intraductal injection", "value": 0.23, "unit": "µmol/g"},
      {"measurement": "Drug per gram tissue of mammary papilla", "setting": "[3]; intraductal injection 100 μl of 10 mg/ml 5FU in saline", "value": 1.36, "unit": "µmol/g"},
      {"measurement": "Drug per gram tissue, mammary gland", "setting": "[3]; intravenous injection", "value": 0, "unit": "µmol/g"},
      {"measurement": "Drug per gram tissue, surrounding skin", "setting": "[3]; intravenous injection", "value": 0, "unit": "µmol/g"},
      {"measurement": "Drug per gram tissue of mammary papilla", "setting": "[3]; intravenous injection 100 μl of 10 mg/ml 5FU in saline", "value": 0, "unit": "µmol/g"}
    ]}
  ]
}
